Experimental data from the supplement of paper PMC10307832.

These cell lines were tested with COC1=CC=C(C=C1)COC2=C(C=C(C=C2)CC3=CN=C(N=C3N)N)OC [GW-2580] + NC(=O)Nc1cc(-c2cccc(F)c2)sc1C(=O)N[C@H]1CCCNC1 [AZD7762] (partner 0.2 µM) (assay: relative viability (nuclei count vs DMSO), 5 days (fraction); higher = more cells survive). Conditions: first compound 8 µM.
Summary of the method: (§1)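 Cells from lung cancer lines were seeded into 1536-well plates and, one day later, dosed by pin tool. Treatments were either a single drug or a fixed dose of an anchor drug with five library-drug doses (not always all listed) in √10 steps. After 5 days, nuclei were stained in a one-step fixation (final 0.05% Triton X-100, 1% formaldehyde, 1 ug/ml Hoechst) and counted on 4× images, and relative viability is the treated-to-vehicle nuclei ratio, as the median of duplicate plates.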

Cell Line | relative viability
NCI-H2405 | 0.581
HOP-62 | 0.424
LU99A | 0.281
BEN | 0.751
HARA | 0.221
SW 900 | 0.557
NCI-H322M | 0.531
LCLC-97TM1 | 0.212
A-427 | 0.627
NCI-H441 | 1.08
NCI-H1734 | 0.568
NCI-H460 | 0.492
NCI-H2347 | 0.776
NCI-H1395 | 0.416
201T | 0.627
NCI-H1915 | 0.743
HCC-827 | 0.214
LXF-289 | 1.06
NCI-H23 | 0.179
NCI-H647 | 0.405
CAL-12T | 0.594
NCI-H1651 | 0.455
EPLC-272H | 0.297
NCI-H1355 | 0.676
NCI-H3122 | 1
NCI-H1437 | 0.995
NCI-H1755 | 0.405
HCC-15 | 1.39
NCI-H1793 | 0.323
PC-14 | 0.396

The cell lines below were run with COC1=CC=C(C=C1)COC2=C(C=C(C=C2)CC3=CN=C(N=C3N)N)OC [GW-2580] + O=C(CCCCCCC(=O)Nc1ccccc1)NO [Vorinostat] (partner 1 µM) in the same assay as above. Conditions: first compound 0.08 µM.
Summary of the method: as §1

Cell Line | relative viability
NCI-H2170 | 0.932
NCI-H2405 | 1.05
HOP-62 | 0.736
LU99A | 0.646
BEN | 0.587
HARA | 0.561
SW 900 | 0.53
NCI-H322M | 0.843
LCLC-97TM1 | 0.806
A-427 | 0.534
NCI-H441 | 0.913
NCI-H1734 | 0.871
NCI-H460 | 0.85
NCI-H2347 | 0.619
NCI-H1395 | 0.669
201T | 1.01

Cell Line | relative viability
NCI-H1915 | 0.559
HCC-827 | 0.652
LXF-289 | 0.843
NCI-H23 | 0.53
NCI-H647 | 0.726
CAL-12T | 0.777
NCI-H1651 | 0.516
EPLC-272H | 0.381
NCI-H1355 | 0.701
NCI-H3122 | 1.08
NCI-H1437 | 0.923
NCI-H1755 | 1.03
HCC-15 | 0.866
NCI-H1793 | 0.755
PC-14 | 0.919

Same assay, conditions: first compound 0.8 µM

Cell Line | relative viability
NCI-H2170 | 0.903
NCI-H2405 | 1.19
HOP-62 | 0.73
LU99A | 0.522
BEN | 0.565
HARA | 0.601
SW 900 | 0.517
NCI-H322M | 0.996
LCLC-97TM1 | 0.74
A-427 | 0.97
NCI-H441 | 0.951
NCI-H1734 | 0.802
NCI-H460 | 1.11
NCI-H2347 | 0.621
NCI-H1395 | 0.662
201T | 0.949

Cell Line | relative viability
NCI-H1915 | 0.583
HCC-827 | 0.915
LXF-289 | 0.806
NCI-H23 | 0.782
NCI-H647 | 0.511
CAL-12T | 0.697
NCI-H1651 | 0.636
EPLC-272H | 0.409
NCI-H1355 | 0.656
NCI-H3122 | 1.06
NCI-H1437 | 0.918
NCI-H1755 | 0.77
HCC-15 | 1.07
NCI-H1793 | 0.88
PC-14 | 0.977

Same assay, conditions: first compound 2.53 µM

Cell Line | relative viability
NCI-H2170 | 0.64
NCI-H2405 | 0.9
HOP-62 | 0.539
LU99A | 0.435
BEN | 0.559
HARA | 0.548
SW 900 | 0.419
NCI-H322M | 0.893
LCLC-97TM1 | 0.659
A-427 | 0.806
NCI-H441 | 0.68
NCI-H1734 | 0.725
NCI-H460 | 0.721
NCI-H2347 | 0.549
NCI-H1395 | 0.623
201T | 0.992

Cell Line | relative viability
NCI-H1915 | 0.442
HCC-827 | 0.828
LXF-289 | 0.776
NCI-H23 | 0.462
NCI-H647 | 0.59
CAL-12T | 0.978
NCI-H1651 | 0.534
EPLC-272H | 0.301
NCI-H1355 | 0.529
NCI-H3122 | 1.06
NCI-H1437 | 0.674
NCI-H1755 | 0.7
HCC-15 | 0.787
NCI-H1793 | 0.566
PC-14 | 0.724

Same assay, conditions: first compound 8 µM

Cell Line | relative viability
NCI-H2170 | 0.775
NCI-H2405 | 0.785
HOP-62 | 0.731
LU99A | 0.528
BEN | 0.633
HARA | 0.588
SW 900 | 0.528
NCI-H322M | 0.903
LCLC-97TM1 | 0.684
A-427 | 0.848
NCI-H441 | 0.783
NCI-H1734 | 0.775
NCI-H460 | 0.631
NCI-H2347 | 0.575
NCI-H1395 | 0.742
201T | 0.883

Cell Line | relative viability
NCI-H1915 | 0.508
HCC-827 | 0.832
LXF-289 | 0.72
NCI-H23 | 0.546
NCI-H647 | 0.447
CAL-12T | 0.859
NCI-H1651 | 0.555
EPLC-272H | 0.334
NCI-H1355 | 0.697
NCI-H3122 | 1.13
NCI-H1437 | 0.534
NCI-H1755 | 0.748
HCC-15 | 0.75
NCI-H1793 | 0.718
PC-14 | 0.607
